Patent US20120329787A1, “FUNGICIDAL PYRANONES AND OXAZINONES” (E.I. DU PONT DE NEMOURS AND COMPANY, priority 2011, published 2012)

Tests used:
Type in all cases: in vivo
[1] = test system: Puccinia recondita f. sp. tritici; test: Test G: wheat leaf rust, spray on wheat seedlings after inoculation (curative); details: 200 ppm test suspension, sprayed after inoculation; for pest or weed control at 200 ppm: Puccinia recondita, 96 h, read-out: Test G rating (100 = 100% disease control, 0 = no disease control)
Description: General protocol for preparing test suspensions for Tests A-I: the test compounds were first dissolved in acetone in an amount equal to 3% of the final volume and then suspended at the desired concentration (in ppm) in acetone and purified water (50/50 mix by volume) containing 250 ppm of the surfactant Trem® 014 (polyhydric alcohol esters). The resulting test suspensions were then used in Tests A-I. Spraying a 200 ppm test suspension to the point of run-off on the test plants was the equivalent of a rate of 500 g/ha. […] (An asterisk “*” next to the rating value indicates a 40 ppm test suspension was used.) Wheat seedlings were inoculated with a spore suspension of Puccinia recondita f. sp. tritici (the causal agent of wheat leaf rust) and incubated in a saturated atmosphere at 20° C. for 24 h, and then moved to a growth chamber at 20° C. for 2 days. At the end of this time, the test suspension was sprayed to the point of run-off, and then the seedlings were moved to a growth chamber at 20° C. for 4 days after which time visual disease ratings were made. […] A dash (-) indicates no test results. All results are for 200 ppm except where followed by an asterisk “*”, which indicates a 40 ppm.

[2] = test system: Puccinia recondita f. sp. tritici; test: Test H: wheat leaf rust, spray on wheat seedlings the day before inoculation; details: 200 ppm test suspension, sprayed before inoculation; for pest or weed control at 200 ppm: Puccinia recondita, 168 h, read-out: Test H rating (100 = 100% disease control, 0 = no disease control)
Description: General protocol for preparing test suspensions for Tests A-I: the test compounds were first dissolved in acetone in an amount equal to 3% of the final volume and then suspended at the desired concentration (in ppm) in acetone and purified water (50/50 mix by volume) containing 250 ppm of the surfactant Trem® 014 (polyhydric alcohol esters). The resulting test suspensions were then used in Tests A-I. Spraying a 200 ppm test suspension to the point of run-off on the test plants was the equivalent of a rate of 500 g/ha. […] (An asterisk “*” next to the rating value indicates a 40 ppm test suspension was used.) The test suspension was sprayed to the point of run-off on wheat seedlings. The following day, the seedlings were inoculated with a spore suspension of Puccinia recondita f. sp. tritici (the causal agent of wheat leaf rust) and incubated in a saturated atmosphere at 20° C. for 24 h, and then moved to a growth chamber at 20° C. for 6 days, after which time visual disease ratings were made Results for Tests A-I are given in Table A. […] A dash (-) indicates no test results. All results are for 200 ppm except where followed by an asterisk “*”, which indicates a 40 ppm.

[3] = test system: Erysiphe graminis f. sp. tritici; test: Test I: wheat powdery mildew, spray on wheat seedlings the day before inoculation; details: 200 ppm test suspension; for pest or weed control at 200 ppm: Blumeria graminis, 168 h, read-out: Test I rating (100 = 100% disease control, 0 = no disease control)
Description: General protocol for preparing test suspensions for Tests A-I: the test compounds were first dissolved in acetone in an amount equal to 3% of the final volume and then suspended at the desired concentration (in ppm) in acetone and purified water (50/50 mix by volume) containing 250 ppm of the surfactant Trem® 014 (polyhydric alcohol esters). The resulting test suspensions were then used in Tests A-I. Spraying a 200 ppm test suspension to the point of run-off on the test plants was the equivalent of a rate of 500 g/ha. […] (An asterisk “*” next to the rating value indicates a 40 ppm test suspension was used.) The test suspension was sprayed to the point of run-off on wheat seedlings. The following day, the seedlings were inoculated with a spore dust of Erysiphe graminis f. sp. tritici, (the causal agent of wheat powdery mildew) and incubated in a growth chamber at 20° C. for 7 days, after which time visual disease ratings were made. […] A dash (-) indicates no test results. All results are for 200 ppm except where followed by an asterisk “*”, which indicates a 40 ppm.

Septoria nodorum = test: Test E: Septoria glume blotch, spray on wheat seedlings the day before inoculation; details: for Test E rating (100 = 100% disease control, 0 = no disease control) / pest or weed control at 200 ppm: 200 ppm test suspension
Description: General protocol for preparing test suspensions for Tests A-I: the test compounds were first dissolved in acetone in an amount equal to 3% of the final volume and then suspended at the desired concentration (in ppm) in acetone and purified water (50/50 mix by volume) containing 250 ppm of the surfactant Trem® 014 (polyhydric alcohol esters). The resulting test suspensions were then used in Tests A-I. Spraying a 200 ppm test suspension to the point of run-off on the test plants was the equivalent of a rate of 500 g/ha. […] (An asterisk “*” next to the rating value indicates a 40 ppm test suspension was used.) The test suspension was sprayed to the point of run-off on wheat seedlings. […] A dash (-) indicates no test results. All results are for 200 ppm except where followed by an asterisk “*”, which indicates a 40 ppm.

Botrytis cinerea = test: Test A: tomato Botrytis, spray on tomato seedlings the day before inoculation; details: 200 ppm test suspension; for pest or weed control at 200 ppm: Botrytis cinerea, 120 h, read-out: Test A rating (100 = 100% disease control, 0 = no disease control)
Description: General protocol for preparing test suspensions for Tests A-I: the test compounds were first dissolved in acetone in an amount equal to 3% of the final volume and then suspended at the desired concentration (in ppm) in acetone and purified water (50/50 mix by volume) containing 250 ppm of the surfactant Trem® 014 (polyhydric alcohol esters). The resulting test suspensions were then used in Tests A-I. Spraying a 200 ppm test suspension to the point of run-off on the test plants was the equivalent of a rate of 500 g/ha. […] (An asterisk “*” next to the rating value indicates a 40 ppm test suspension was used.) The test suspension was sprayed to the point of run-off on tomato seedlings. The following day, the seedlings were inoculated with a spore suspension of Botrytis cinerea (the causal agent of tomato Botrytis) and incubated in a saturated atmosphere at 20° C. for 48 h, and then moved to a growth chamber at 24° C. for 3 additional days, after which time visual disease ratings were made. […] A dash (-) indicates no test results. All results are for 200 ppm except where followed by an asterisk “*”, which indicates a 40 ppm.

Alternaria solani = test: Test B: tomato early blight, spray on tomato seedlings the day before inoculation; details: 200 ppm test suspension; for pest or weed control at 200 ppm: Alternaria solani, 168 h, read-out: Test B rating (100 = 100% disease control, 0 = no disease control)
Description: General protocol for preparing test suspensions for Tests A-I: the test compounds were first dissolved in acetone in an amount equal to 3% of the final volume and then suspended at the desired concentration (in ppm) in acetone and purified water (50/50 mix by volume) containing 250 ppm of the surfactant Trem® 014 (polyhydric alcohol esters). The resulting test suspensions were then used in Tests A-I. Spraying a 200 ppm test suspension to the point of run-off on the test plants was the equivalent of a rate of 500 g/ha. […] (An asterisk “*” next to the rating value indicates a 40 ppm test suspension was used.) The test suspension was sprayed to the point of run-off on tomato seedlings. The following day, the seedlings were inoculated with a spore suspension of Alternaria solani (the causal agent of tomato early blight) and incubated in a saturated atmosphere at 27° C. for 48 h, and then moved to a growth chamber at 20° C. for 5 days, after which time visual disease ratings were made. […] A dash (-) indicates no test results. All results are for 200 ppm except where followed by an asterisk “*”, which indicates a 40 ppm.

Septoria tritici = test: Test F: wheat leaf blotch, spray on wheat seedlings the day before inoculation; details: 200 ppm test suspension; for pest or weed control at 200 ppm: Zymoseptoria tritici, 504 h, read-out: Test F rating (100 = 100% disease control, 0 = no disease control)
Description: General protocol for preparing test suspensions for Tests A-I: the test compounds were first dissolved in acetone in an amount equal to 3% of the final volume and then suspended at the desired concentration (in ppm) in acetone and purified water (50/50 mix by volume) containing 250 ppm of the surfactant Trem® 014 (polyhydric alcohol esters). The resulting test suspensions were then used in Tests A-I. Spraying a 200 ppm test suspension to the point of run-off on the test plants was the equivalent of a rate of 500 g/ha. […] (An asterisk “*” next to the rating value indicates a 40 ppm test suspension was used.) The test suspension was sprayed to the point of run-off on wheat seedlings. The following day, the seedlings were inoculated with a spore suspension of Septoria tritici (the causal agent of wheat leaf blotch) and incubated in a saturated atmosphere at 24° C. for 48 h, and then the seedlings were moved to a growth chamber at 20° C. for 19 additional days, after which time visual disease ratings were made. […] A dash (-) indicates no test results. All results are for 200 ppm except where followed by an asterisk “*”, which indicates a 40 ppm.

[4] = Parastagonospora nodorum, 264 h, read-out: Test E rating (100 = 100% disease control, 0 = no disease control)

| SMILES | pest or weed control at 200 ppm [1] | pest or weed control at 200 ppm [2] | pest or weed control at 200 ppm [3] | pest or weed control at 40 ppm (Septoria nodorum; Parastagonospora nodorum, 264 h, 40 ppm test suspension (asterisk), read-out: Test E rating (100 = 100% disease control, 0 = no disease control)) | pest or weed control at 200 ppm (Botrytis cinerea) | pest or weed control at 200 ppm (Alternaria solani) | pest or weed control at 200 ppm (Septoria tritici) | Test G rating (100 = 100% disease control, 0 = no disease control) [1] | Test H rating (100 = 100% disease control, 0 = no disease control) [2] | Test I rating (100 = 100% disease control, 0 = no disease control) [3] | Test E rating (100 = 100% disease control, 0 = no disease control) (Septoria nodorum) | Test A rating (100 = 100% disease control, 0 = no disease control) (Botrytis cinerea) | Test B rating (100 = 100% disease control, 0 = no disease control) (Alternaria solani) | Test F rating (100 = 100% disease control, 0 = no disease control) (Septoria tritici) | pest or weed control at 200 ppm (Septoria nodorum; [4]) |
| --- | --- | --- | --- | --- | --- | --- | --- | --- | --- | --- | --- | --- | --- | --- | --- |
| COc1cc(OC)cc(-c2c(-c3ccc(F)cc3F)c(C)oc(=O)c2-c2ccccc2F)c1 [Compound 33, 5-(2,4-difluorophenyl)-4-(3,5-dimethoxyphenyl)-3-(2-fluorophenyl)-6-methyl-2H-pyran-2-one] | 99% | 100% | 76% | 99% | 99% | 100% | 98% |  |  |  |  |  |  |  |  |
| COc1cc(OC)cc(-c2c(-c3ccccc3F)c(C)oc(=O)c2-c2ccccc2)c1 [Compound 26] |  |  |  |  |  |  |  | 9% | 100% | 27% | 0% | 99% | 93% | 95% |  |
| COc1cc(OC)c(Cl)c(-c2c(-c3c(F)cc(F)cc3F)c(C)oc(=O)c2C)c1Cl [Compound 59] |  |  |  |  |  |  |  | 82% | 100% | 90% | 0% | 100% | 0% |  |  |
| Cc1oc(=O)c(C)c(-c2ccc(F)cc2F)c1Br [Compound 41, 5-bromo-4-(2,4-difluorophenyl)-3,6-dimethyl-2H-pyran-2-one] | 0% | 0% | 0% |  | 67% | 0% | 0% |  |  |  |  |  |  |  | 0% |
| COc1cc(F)c(-c2c(C)oc(=O)c(C)c2-c2c(Cl)c(OC)cc(OC)c2Cl)c(F)c1 [Compound 44] |  |  |  |  |  |  |  | 26% | 96% | 0% | 0% | 79% | 0% | 73% |  |
| COc1cc(OC)cc(-c2c(-c3c(F)cc(F)cc3F)c(C)oc(=O)c2C)c1 [Compound 55, 4-(3,5-dimethoxyphenyl)-3,6-dimethyl-5-(2,4,6-trifluorophenyl)-2H-pyran-2-one] | 100% | 100% | 100% |  | 77% | 100% | 100% |  |  |  |  |  |  |  | 99% |
| COc1cc(OC)cc(-c2c(-c3ccccc3F)c(C)oc(=O)c2C)c1 [Compound 60] |  |  |  |  |  |  |  | 96% | 100% | 98% | 0% |  | 26% | 100% |  |
| COc1cc(OC)cc(-c2c(C)noc(=O)c2-c2c(F)cc(F)cc2F)c1 [Compound 24] |  |  |  |  |  |  |  | 0% |  | 99% | 0% | 98% | 63% | 99% |  |
